Results as given in the supplement of paper PMC11061612.

Key:
Experiment in all cases: combination Emax (second highest fraction inhibited in the dose matrix, 72 h); higher = more inhibition; extreme values may be limits of the assay
[1] = system: RERF-GC-1B (Gastric Carcinoma)
How it was run: (§1)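 Bliss excess equals the observed combination effect minus the expected value EA + EB − EA·EB, where EA and EB are the effects of each agent alone. Combination Emax is the second-highest inhibition within the matrix. Inhibition was scaled from CellTiter-Glo 2.0 luminescence, with 0 set by vehicle wells and 1 by blank wells, after 72 hours of two-drug dosing of cells plated in 1536-well plates.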

[2] = system: OVMIU (Ovarian Carcinoma)
How it was run: as §1

[3] = system: 23132-87 (Gastric Carcinoma)
How it was run: as §1

[4] = system: GP5d (Colorectal Carcinoma)
How it was run: as §1

[5] = system: SHP-77 (Small Cell Lung Carcinoma)
How it was run: as §1

IST-MES1 (Mesothelioma) = system: IST-MES1 (Mesothelioma)
How it was run: as §1

[6] = system: HCT-15 (Colorectal Carcinoma)
How it was run: as §1

WM793B (Melanoma) = system: WM793B (Melanoma)
How it was run: as §1

A2058 (Melanoma) = system: A2058 (Melanoma)
How it was run: as §1

[7] = system: SK-PN-DW (Other Solid Carcinomas)
How it was run: as §1

[8] = system: COLO-680N (Esophageal Squamous Cell Carcinoma)
How it was run: as §1

[9] = system: NCI-H23 (Lung Adenocarcinoma)
How it was run: as §1

GB-1 (Glioblastoma) = system: GB-1 (Glioblastoma)
How it was run: as §1

[10] = system: LK-2 (Squamous Cell Lung Carcinoma)
How it was run: as §1

[11] = system: RERF-LC-Sq1 (Squamous Cell Lung Carcinoma)
How it was run: as §1

[12] = system: MKN45 (Gastric Carcinoma)
How it was run: as §1

[13] = system: LB996-RCC (Kidney Carcinoma)
How it was run: as §1

[14] = system: CAL-120 (Breast Carcinoma)
How it was run: as §1

WM278 (Melanoma) = system: WM278 (Melanoma)
How it was run: as §1

[15] = system: PSN1 (Pancreatic Carcinoma)
How it was run: as §1

**Q.** With COc1nnc2ccc(N3CCC(c4ccc(OCCN5CCN(C)C(=O)[C@H]5C)cc4)CC3)nn12 [AZD5153] + C[C@@H]1COCCN1C2=NC(=NC(=C2)C3(CC3)[S@](=N)(=O)C)C4=C5C=CNC5=NC=C4 [AZD6738] (first compound max 1 µM, 7x7, partner max 10 µM) as the compound, how does the “combination Emax” value [1] read?
**A.** 0.796

**Q.** And the “combination Emax” value [2]?
**A.** 0.795

**Q.** And the “combination Emax” value [3]?
**A.** 0.594

**Q.** What about the “combination Emax” value [4] of the same compound?
**A.** 0.855

**Q.** And the “combination Emax” value [5]?
**A.** 0.821

**Q.** What about the “combination Emax” value (IST-MES1 (Mesothelioma)) of the same compound?
**A.** 0.644

**Q.** And the “combination Emax” value [6]?
**A.** 0.858

**Q.** What about the “combination Emax” value (WM793B (Melanoma)) of the same compound?
**A.** 0.827

**Q.** What about the “combination Emax” value (A2058 (Melanoma)) of the same compound?
**A.** 0.908

**Q.** And the “combination Emax” value [7]?
**A.** 0.868

**Q.** What about the “combination Emax” value [8] of the same compound?
**A.** 0.383

**Q.** What about the “combination Emax” value [9] of the same compound?
**A.** 1

**Q.** What about the “combination Emax” value (GB-1 (Glioblastoma)) of the same compound?
**A.** 0.678

**Q.** What about the “combination Emax” value [10] of the same compound?
**A.** 0.784

**Q.** What about the “combination Emax” value [11] of the same compound?
**A.** 0.801

**Q.** What about the “combination Emax” value [12] of the same compound?
**A.** 0.782

**Q.** What about the “combination Emax” value [13] of the same compound?
**A.** 0.731

**Q.** And the “combination Emax” value [14]?
**A.** 0.589

**Q.** What about the “combination Emax” value (WM278 (Melanoma)) of the same compound?
**A.** 0.671

**Q.** And the “combination Emax” value [15]?
**A.** 0.586

**Q.** COc1nnc2ccc(N3CCC(c4ccc(OCCN5CCN(C)C(=O)[C@H]5C)cc4)CC3)nn12 [AZD5153] + Cc1c2c(nn1C)CSCc1cc(n(C)n1)CSc1cc(c3ccccc3c1)OCCCc1c(C(=O)O)n(C)c3c-2c(Cl)ccc13 [AZD5991] (first compound max 1 µM, 7x7, partner max 1 µM) was tested. Which “combination Emax” value [1] did it give?
**A.** 0.985

**Q.** And the “combination Emax” value [2]?
**A.** 0.813

**Q.** What about the “combination Emax” value [3] of the same compound?
**A.** 0.87

**Q.** What about the “combination Emax” value [4] of the same compound?
**A.** 0.961

**Q.** What about the “combination Emax” value [5] of the same compound?
**A.** 0.544

**Q.** And the “combination Emax” value (IST-MES1 (Mesothelioma))?
**A.** 0.96

**Q.** And the “combination Emax” value [6]?
**A.** 0.75

**Q.** What about the “combination Emax” value (WM793B (Melanoma)) of the same compound?
**A.** 0.688

**Q.** What about the “combination Emax” value (A2058 (Melanoma)) of the same compound?
**A.** 0.975

**Q.** And the “combination Emax” value [7]?
**A.** 0.985

**Q.** What about the “combination Emax” value [8] of the same compound?
**A.** 0.37

**Q.** And the “combination Emax” value [9]?
**A.** 0.997

**Q.** What about the “combination Emax” value (GB-1 (Glioblastoma)) of the same compound?
**A.** 0.288

**Q.** And the “combination Emax” value [10]?
**A.** 0.413

**Q.** What about the “combination Emax” value [11] of the same compound?
**A.** 0.602

**Q.** What about the “combination Emax” value [12] of the same compound?
**A.** 0.497

**Q.** And the “combination Emax” value [13]?
**A.** 0.491

**Q.** What about the “combination Emax” value [14] of the same compound?
**A.** 0.403

**Q.** And the “combination Emax” value (WM278 (Melanoma))?
**A.** 0.484

**Q.** And the “combination Emax” value [15]?
**A.** 0.506

**Q.** For COc1nnc2ccc(N3CCC(c4ccc(OCCN5CCN(C)C(=O)[C@H]5C)cc4)CC3)nn12 [AZD5153] + Cn1cnc2c(F)c(Nc3ccc(Br)cc3Cl)c(C(=O)NOCCO)cc21 [Selumetinib] (first compound max 1 µM, 7x7, partner max 10 µM), which “combination Emax” value [1] is on record?
**A.** 0.753

**Q.** What about the “combination Emax” value [2] of the same compound?
**A.** 0.737

**Q.** And the “combination Emax” value [3]?
**A.** 0.2

**Q.** What about the “combination Emax” value [4] of the same compound?
**A.** 0.887

**Q.** What about the “combination Emax” value [5] of the same compound?
**A.** 0.424

**Q.** What about the “combination Emax” value (IST-MES1 (Mesothelioma)) of the same compound?
**A.** 0.641

**Q.** What about the “combination Emax” value [6] of the same compound?
**A.** 0.819

**Q.** What about the “combination Emax” value (WM793B (Melanoma)) of the same compound?
**A.** 0.786

**Q.** And the “combination Emax” value (A2058 (Melanoma))?
**A.** 0.842

**Q.** What about the “combination Emax” value [7] of the same compound?
**A.** 0.559

**Q.** And the “combination Emax” value [8]?
**A.** 0.378

**Q.** And the “combination Emax” value [9]?
**A.** 0.852

**Q.** And the “combination Emax” value (GB-1 (Glioblastoma))?
**A.** 0.288

**Q.** And the “combination Emax” value [10]?
**A.** 0.6

**Q.** What about the “combination Emax” value [11] of the same compound?
**A.** 0.79

**Q.** And the “combination Emax” value [12]?
**A.** 0.744

**Q.** What about the “combination Emax” value [13] of the same compound?
**A.** 0.482

**Q.** What about the “combination Emax” value [14] of the same compound?
**A.** 0.479

**Q.** What about the “combination Emax” value (WM278 (Melanoma)) of the same compound?
**A.** 0.799

**Q.** What about the “combination Emax” value [15] of the same compound?
**A.** 0.818

**Q.** Which results are given for Cc1c2c(nn1C)CSCc1cc(n(C)n1)CSc1cc(c3ccccc3c1)OCCCc1c(C(=O)O)n(C)c3c-2c(Cl)ccc13 [AZD5991] + C1CN(CCC1(C(=O)N[C@@H](CCO)C2=CC=C(C=C2)Cl)N)C3=NC=NC4=C3C=CN4 [Capivasertib] (first compound max 1 µM, 7x7, partner max 3 µM)?
**A.** combination Emax [1]: 0.989; combination Emax [2]: 0.353; combination Emax [3]: 0.934; combination Emax [4]: 0.733; combination Emax [5]: 0.263; combination Emax (IST-MES1 (Mesothelioma)): 0.138; combination Emax [6]: 0.209; combination Emax (WM793B (Melanoma)): 0.31; combination Emax (A2058 (Melanoma)): 0.908; combination Emax [7]: 0.95; combination Emax [8]: 0.139; combination Emax [9]: 0.899; combination Emax (GB-1 (Glioblastoma)): 0.195; combination Emax [10]: 0.121; combination Emax [11]: 0.757; combination Emax [12]: 0.467; combination Emax [13]: 0.433; combination Emax [14]: 0.256; combination Emax (WM278 (Melanoma)): 0.266; combination Emax [15]: 0.241

**Q.** For Cc1c2c(nn1C)CSCc1cc(n(C)n1)CSc1cc(c3ccccc3c1)OCCCc1c(C(=O)O)n(C)c3c-2c(Cl)ccc13 [AZD5991] + C=CCn1c(=O)c2cnc(Nc3ccc(N4CCN(C)CC4)cc3)nc2n1-c1cccc(C(C)(C)O)n1 [AZD1775] (first compound max 1 µM, partner max 1 µM), which “combination Emax” value [1] is on record?
**A.** 1

**Q.** What about the “combination Emax” value [2] of the same compound?
**A.** 0.635

**Q.** And the “combination Emax” value [3]?
**A.** 0.96

**Q.** What about the “combination Emax” value [4] of the same compound?
**A.** 0.977

**Q.** And the “combination Emax” value [5]?
**A.** 0.461

**Q.** And the “combination Emax” value (IST-MES1 (Mesothelioma))?
**A.** 0.31

**Q.** And the “combination Emax” value [6]?
**A.** 0.557

**Q.** And the “combination Emax” value (WM793B (Melanoma))?
**A.** 0.582

**Q.** What about the “combination Emax” value (A2058 (Melanoma)) of the same compound?
**A.** 0.892

**Q.** What about the “combination Emax” value [7] of the same compound?
**A.** 0.962

**Q.** What about the “combination Emax” value [8] of the same compound?
**A.** 0.287

**Q.** What about the “combination Emax” value [9] of the same compound?
**A.** 0.966

**Q.** And the “combination Emax” value (GB-1 (Glioblastoma))?
**A.** 0.293

**Q.** And the “combination Emax” value [10]?
**A.** 0.88

**Q.** And the “combination Emax” value [11]?
**A.** 0.785

**Q.** And the “combination Emax” value [12]?
**A.** 0.826

**Q.** And the “combination Emax” value [13]?
**A.** 0.856

**Q.** And the “combination Emax” value [14]?
**A.** 0.405

**Q.** And the “combination Emax” value (WM278 (Melanoma))?
**A.** 0.463

**Q.** And the “combination Emax” value [15]?
**A.** 0.475

**Q.** What does the source list for Cc1c2c(nn1C)CSCc1cc(n(C)n1)CSc1cc(c3ccccc3c1)OCCCc1c(C(=O)O)n(C)c3c-2c(Cl)ccc13 [AZD5991] + CC1(C)CCC(CN2CCN(c3ccc(C(=O)NS(=O)(=O)c4ccc(NCC5CCOCC5)c([N+](=O)[O-])c4)c(Oc4cnc5[nH]ccc5c4)c3)CC2)=C(c2ccc(Cl)cc2)C1 [Venetoclax] (first compound max 1 µM, 7x7, partner max 1 µM)?
**A.** combination Emax [1]: 1; combination Emax [2]: 0.318; combination Emax [3]: 0.903; combination Emax [4]: 0.928; combination Emax [5]: 0.753; combination Emax (IST-MES1 (Mesothelioma)): 0.116; combination Emax [6]: 0.182; combination Emax (WM793B (Melanoma)): 0.261; combination Emax (A2058 (Melanoma)): 0.914; combination Emax [7]: 0.929; combination Emax [8]: 0.0971; combination Emax [9]: 0.899; combination Emax (GB-1 (Glioblastoma)): 0.133; combination Emax [10]: 0.302; combination Emax [11]: 0.282; combination Emax [12]: 0.168; combination Emax [13]: 0.199; combination Emax [14]: 0.121; combination Emax (WM278 (Melanoma)): 0.291; combination Emax [15]: 0.145
